Source: US10870638B2, “Pyridazinone compound or its salt, and herbicide containing it” (ISHIHARA SANGYO KAISHA, LTD., priority 2016, dated 2020)

Tests used:
Type in all cases: in vivo
Details in all cases: active ingredient amount 31 g/ha, 14th day after application
corn (Zea mays L.) [1] = assay: Test Example 1: foliar treatment, growth inhibition rate on 14th day
Summary of the method: (§1)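 Visual 0–100% inhibition scoring (100 = complete kill) at 14 days after foliar treatment of soil-grown seedlings at species-specific leaf stages, with the compound sprayed as a wettable powder or emulsifiable concentrate dilution.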

[2] = system: green foxtail (Setaria viridis L.); assay: as above
Summary of the method: (§2)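 Compounds applied once to leaves of pot-grown plants; wild oat at 0.4–1.2 leaf, foxtail 0.5–3.2, rice 0.2–2.7, soybean primary leaf. Inhibition estimated by eye on day 14.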

[3] = system: wild oat (Avena fatua L.); assay: as above
Summary of the method: as §2

[4] = system: soybean (Glycine max Merr.); assay: as above
Summary of the method: as §2

[5] = system: crabgrass (Digitaria sanquinalis L.); assay: as above
Summary of the method: as §1

[6] = system: italian ryegrass (Lolium multiflorum Lam.); assay: as above
Summary of the method: as §1

rice (Oryza sativa L.) [7] = assay: as above
Summary of the method: as §2

[8] = system: redroot pigweed (Amaranthus retroflexus L.); assay: as above
Summary of the method: as §1

[9] = system: wheat (Triticum aestivum L.); assay: as above
Summary of the method: as §1

[10] = system: barnyardgrass (Echinochloa crus-qalli L.); assay: as above
Summary of the method: as §1

corn (Zea mays L.) [11] = assay: Test Example 2: soil application on the day after sowing, growth inhibition rate on 14th day
Summary of the method: (§3)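 Read-out is visual percent growth inhibition 14 days post-application, scaled from 0 (as non-treated) to 100 (complete kill). Treatment: soil application by small sprayer the day after sowing, compound formulations diluted in water equivalent to 1,000 L/ha.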

[12] = system: green foxtail (Setaria viridis L.); assay: as above
Summary of the method: as §3

[13] = system: soybean (Glycine max Merr.); assay: as above
Summary of the method: as §3

[14] = system: velvetleaf (Abutilon theophrasti MEDIC.); assay: as above
Summary of the method: as §3

[15] = system: prickly sida (Sida spinosa L.); assay: as above
Summary of the method: as §3

rice (Oryza sativa L.) [16] = assay: as above
Summary of the method: as §3

[17] = system: redroot pigweed (Amaranthus retroflexus L.); assay: as above
Summary of the method: as §3

[18] = system: wheat (Triticum aestivum L.); assay: as above
Summary of the method: as §3

[19] = system: crabgrass (Digitaris sanquinalis L.); assay: as above
Summary of the method: as §3

[20] = system: barnyardgrass (Echinochloa crus-qalli L.); assay: as above
Summary of the method: as §3

[21] = visual, 0 = non-treated, 100 = complete kill

Compound | Growth inhibition rate (%) Corn (corn (Zea mays L.) [1]) [%] | Growth inhibition rate (%) Green foxtail [2] [%] | Growth inhibition rate (%) Wild oat [3] [%] | Growth inhibition rate (%) Soybean [4] [%] | Growth inhibition rate (%) Crabgrass [5] [%] | Growth inhibition rate (%) Italian ryegrass [6] [%] | Growth inhibition rate (%) Rice (rice (Oryza sativa L.) [7]) [%] | Growth inhibition rate (%) Redroot pigweed [8] [%] | Growth inhibition rate (%) Wheat [9] [%] | Growth inhibition rate (%) Barnyardgrass [10] [%] | Growth inhibition rate (%) Corn (corn (Zea mays L.) [11]) [%] | Growth inhibition rate (%) Green foxtail [12] [%] | Growth inhibition rate (%) Soybean [13] [%] | Growth inhibition rate (%) Velvetleaf [14] [%] | Growth inhibition rate (%) Prickly sida [15] [%] | Growth inhibition rate (%) Rice (rice (Oryza sativa L.) [16]) [%] | Growth inhibition rate (%) Redroot pigweed [17] [%] | Growth inhibition rate (%) Wheat [18] [%] | Growth inhibition rate (%) Crabgrass [19] [%] | Growth inhibition rate (%) Barnyardgrass [20] [%] | other results
Cc1ccc(Oc2ncc(C(F)(F)F)cc2C(F)(F)F)cc1-c1c(O)c(C)nn(C)c1=O [Compound 2-84] | 90 | 100 | 99 | 0 | 100 | 93 | 0 | 0 | 0 | 99 | 0 | 100 | 0 | 0 | 0 | 60 | 0 | 0 | 100 | 100 | 
CCc1ccc(Oc2ncc(C(F)(F)F)cc2Cl)cc1-c1c(O)cnn(CC)c1=O [1-173] | 99 | 100 | 100 | 0 | 100 | 95 | 60 | 0 | 35 | 100 | 50 | 100 | 0 | 0 | 0 | 60 | 0 | 0 | 100 | 100 | 
CCc1ccc(Oc2ncc(C(F)(F)F)cc2Cl)cc1-c1c(OC(C)=O)c(C)nn(C)c1=O [1-45] | 100 | 100 | 100 | 10 | 100 | 100 | 99 | 10 | 99 | 100 | 88 | 100 | 0 | 0 | 0 | 30 | 0 | 20 | 100 | 100 | 
Cc1ccc(Oc2cnc3cc(Cl)ccc3n2)cc1-c1c(OC(=O)OCCCl)c(C)nn(C)c1=O [Compound 3-59] |  |  |  |  |  |  |  |  |  |  | 0 | 80 | 0 | 0 | 0 | 0 | 0 | 0 | 0 | 85 | Growth inhibition rate (%) Corn (corn (Zea mays L.) [1]; [21]): 0%; Growth inhibition rate (%) Green foxtail [2, 21]: 100%; Growth inhibition rate (%) Wild oat [3, 21]: 93%; Growth inhibition rate (%) Soybean [4, 21]: 20%; Growth inhibition rate (%) Crabgrass [5, 21]: 98%; Growth inhibition rate (%) Italian ryegrass [6, 21]: 93%; Growth inhibition rate (%) Rice (rice (Oryza sativa L.) [7]; [21]): 0%; Growth inhibition rate (%) Redroot pigweed [8, 21]: 0%; Growth inhibition rate (%) Wheat [9, 21]: 65%; Growth inhibition rate (%) Barnyardgrass [10, 21]: 99%
CC(=O)Oc1c(C)nn(C)c(=O)c1-c1cc(Oc2ccc(C(F)(F)F)cn2)ccc1C [Compound 2-61] | 95 | 95 | 98 | 0 | 78 | 93 | 90 | 0 | 95 | 99 | 0 | 98 | 0 | 0 | 0 | 0 | 0 | 0 | 50 | 65 | 
Cc1ccc(Oc2nc3ccc(Br)cc3s2)cc1-c1c(O)c(C)nn(C)c1=O [Compound 2-156] | 0 | 98 | 10 | 0 | 93 | 30 | 0 | 0 | 0 | 98 | 0 | 98 | 0 | 0 | 0 | 15 | 0 | 0 | 75 | 83 | 
CC(=O)Oc1cnn(C(C)C)c(=O)c1-c1cc(Oc2nc3ccc(Cl)cc3o2)ccc1C [Compound 2-172] | 98 | 99 | 40 | 40 | 98 | 35 | 30 | 0 | 10 | 100 | 0 | 20 | 0 | 0 | 0 | 0 | 0 | 0 | 30 | 60 | 
CC(=O)Oc1c(C)nn(C)c(=O)c1-c1cc(Oc2nc3ccccc3o2)ccc1C [Compound 2-138] | 15 | 65 | 20 | 0 | 65 | 20 | 35 | 0 | 10 | 90 | 0 | 90 | 0 | 0 | 0 | 25 | 0 | 0 | 83 | 93 | 
CC(=O)Oc1c(C)nn(C)c(=O)c1-c1cc(Oc2ncc(C(F)(F)F)cc2F)ccc1C [Compound 2-63] | 100 | 100 | 100 | 0 | 98 | 100 | 90 | 0 | 95 | 100 | 0 | 98 | 0 | 0 | 0 | 15 | 0 | 0 | 100 | 100 | 
